Results as given in patent publication US9078441B2, “Antimicrobial flush solutions” (Board of Regents, The University of Texas System, priority 2003, dated 2015).

Experiments:
[1] = tested on: methicillin-resistant Staphylococcus aureus (MRSA); assay: Modified Robbins device (MRD) in vitro colonization model, MRSA in biofilm on silicone catheter segments; format: cell-based; settings: for 24 h growth after 15 min in drug mean CFU MRSA / suppression / eradication / regrowth of MRSA embedded in biofilm, in words: 15 min exposure; for 24 h growth after 15 min in drug mean CFU MRSA: then re-incubation in broth for 24 h at 37° C.; for suppression / eradication / regrowth of MRSA embedded in biofilm, in words: with or without 24 h re-incubation in broth; for 15 minutes in Drug mean CFU MRSA: catheter segments cultured by scrape sonication immediately after 15 min exposure at 37° C., confluent growth counted as 500
Description: (§1) The in vitro model utilized a modified Robbins device (MRD) to study the colonization of catheter segments with organisms embedded in biofilm. The modified Robbins device has been previously described (Nickel et al., 1991; Evans et al., 1987, see also U.S. Pat. No. 5,362,754) and is constructed from an acrylic block, 42 cm long with a lumen of 2×10 mm. It consists of 25 evenly spaced specimen plugs, each connected to a silicone catheter segment (Allegiance Healthcare Corp., McGaw Park, Ill.) whose anterior surface (0.3 cm^2) comes in conta-ct with the flushed infusate. After placing the catheter segments in the specimen plug of the modified Robbins device, the entire apparatus was gas sterilized using ethylene oxide. A 500 ml 5% dextrose in water (5% D5/W) was connected to the modified Robbins device through an intravenous tubing administration set and was subsequently infected with an innoculum of 10^8 CFU/ml of methicillin-resistant Staphylococcus aureus (MRSA), to produce an infected infusate at the concentration of 2×10^5 CFU/ml. The biofilm-producing S. aureus isolates were obtained from patients with CRBSI. In another series of experiments, 500 ml 5% D5/W bag was infected with a biofilm-producing C. parapsilosis using an inoculum of 10^5 CFU/ml to produce an infected infusate at a concentration of 2×10^2 CFU/ml of C. parapsilosis. The whole system was incubated at 37° C. and the infected infusate was flushed through the MRD using a peristaltic pump permitting the infusate to flow at the rate of 60 ml/hour for 8 hours. The modified Robbins device was left to incubate for a total of 18 hours (another 10 hours). Subsequently, the infected bag was removed and a 250 ml saline sterile bag which was infused through the MRD at 125 ml/hour for 2 hours in order to remove all free floating organisms. To insure biofilm formation, at least three catheter segments were randomly removed from the 25 evenly spaced catheter segments in the MRD and studied by scanning electron microscopy. This was repeated for every organism tested.
(§2) The remaining catheter segments were removed and each segment was placed in a tube containing 2 ml of one of the following broth solutions: (1) Mueller-Hinton broth (Becton Dickinson & Co., Cockeysville, Md.); (2) EDTA at a concentration of 30 mg/ml in broth (Abbott Laboratories, North Chicago, Ill.); (3) minocycline at 3 mg/ml in broth (Wyeth-Ayerst Laboratories, Collegeville, Pa.); (4) minocycline (3 mg/ml) and EDTA combination (M-EDTA) in broth; (5) 25% ethanol (ETOH) solution in broth; (6) minocycline at 3 mg/ml in 25% ethanol solution in broth; (7) EDTA 30 mg/ml in 25% ethanol solution in broth; and (8) M-EDTA in 25% ethanol solution in broth. The experiments were repeated in triplicate or quadruplicate, and during each experiment, 2-5 catheter segments were exposed to the same solution for only 15 minutes at 37° C. Subsequently, some of the catheter segments were immediately removed and cultured by scrape sonication. Other alternating catheter segments were removed, placed in broth (TSB), incubated for 24 hours, and then cultured by scrape sonication. This added step of re-incubating catheter segments in broth after the 15 minutes exposure was done to determine whether these agents suppressed the growth of organisms embedded in biofilm or eradicated them. The surface of the catheter segment that was exposed to the infected infusate was scraped with a sterile wooden applicator stick and placed, along with the stick, in a tube containing 0.5 ml of trypticase soy broth. The tubes were sonicated for five minutes; 0.1 ml of the sonicated broth solution in the tube was pipetted and plated over a blood agar plate, which was incubated at 37° for 24 hours. The agar plates were checked for any contaminants. The isolated organisms had to be of the same species and colonial morphology as the original organism used to infect the infusate.

[2] = tested on: MRSA; assay: Silicone disk bioprosthetic colonization MRSA model; format: cell-based, Staphylococcus aureus; settings: for suppression / eradication / regrowth of bioprosthetic MRSA colonization of silicone disks, in words / 1 hour in Drug Mean CFU ± std. error: 1 hour exposure; for suppression / eradication / regrowth of bioprosthetic MRSA colonization of silicone disks, in words: with or without 24 h incubation; for 1 hour in Drug Mean CFU ± std. error / 24 h Growth after 1 hour in Drug Mean CFU ± std. error: MRSA on silicone disks; for 1 hour in Drug Mean CFU ± std. error: up to 5,000 CFU/disk; for 24 h Growth after 1 hour in Drug Mean CFU ± std. error: exposure then 24 h reincubation in TSB
Protocol: (§3) On day 1, pieces of biofilm were prepared. Sterile (Ethylene Oxide Gas Sterilized) silicone disks were placed in 5 ml sterile snap top Falcon tubes and 0.5 ml of pooled plasma added. This was followed by incubation (while rocking) overnight at 37° C.
(§4) On day 2, the bacteria was added to form the biofilm. Using sterile plastic transfer pipettes, the plasma was suctioned out from the tubes and replaced with 0.5 ml of bacterial inoculum (50 ml of Mueller-Hinton broth containing 4-5 colonies of freshly grown bacteria). The tubes were incubated overnight at 37° C.
(§5) On day 3, a drug was added in an attempt to kill the bacteria. Before adding the drug, the pieces were washed in 0.5 ml of 0.9% saline in order to remove any planktonic bacteria. The tubes (containing the biofilm disks and saline) were placed in the incubator at 37° C. for 30 minutes. The saline was then pipetted out using sterile plastic transfer pipettes (taking care not to disturb the pieces too much). The silicone disks were then transferred to new 5 ml snap-top falcon tubes containing 0.5 ml of the drug solution to be tested. The drug solutions tested were as follows: (1) minocycline 3 mg/ml; (2) EDTA 30 mg/ml; (3) 25% ethanol solution; (4) EDTA 30 mg/ml in 25% ethanol; (5) minocycline 3 mg/ml in 25% ethanol; (6) minocycline 3 mg/ml with EDTA 30 mg/ml; and (7) triple combination of minocycline 3 mg/ml and EDTA 30 mg/ml in 25% ethanol solution. The disks were allowed to sit in the drug for 1 hour. The drug was then suctioned out using a plastic transfer pipette. The pieces were once again washed with 0.5 ml saline (added, and shaken for 30 seconds). The disks were then transferred to 15 ml snap-top falcon tubes containing 5 ml of 0.9% saline. The pieces were sonicated for 5 minutes, and then vortexed for 30 seconds. 100 microliters (μl) of the saline was then plated on a room temperature TSAII blood agar plate, and evenly spread using a sterile glass spreader. The plates were incubated overnight at 37° C.
(§6) For the 24 hour reincubation studies, pieces of biofilm were prepared the same exact way as the regular pieces. Before adding the drug, the pieces were washed in 0.5 ml of 0.9% saline in order to remove any planktonic bacteria. The tubes (now containing the biofilm disks and saline) were placed in the incubator at 37° C. for 30 minutes. The saline was then pipetted out using sterile plastic transfer pipettes (taking care not to disturb the pieces too much). The silicone disks were then transferred to new 5 ml snap-top falcon tubes containing 0.5 ml of the drug to be tested. […] The drug was then suctioned out using a plastic transfer pipette. The pieces were once again washed with 0.5 ml saline (added, and shaken for 30 seconds). The pieces were then transferred to new sterile 5 ml snap-top falcon tubes containing 0.5 ml of sterile trypticase soy broth (TSB) and then placed in the incubator at 37° C. overnight.
(§7) On day 4, colonies were counted and the results recorded. The colonies were hand counted, and counting was stopped at 100 colonies. Anything greater was considered >100 colonies. The counts were recorded, and multiplied by a factor of 50 because of the dilution factor between the 5 ml of saline containing the disk and the 100 μl that was plated onto the TSAII blood agar plates. The pieces were then sonicated (in the same TSB that grew overnight) for 5 minutes. 100 μl was then plated on TSAII blood agar plates, and the plates were placed in the incubator to grow overnight at 37° C.
(§8) On day 5, the regrowth pieces were counted. The colonies were hand counted, and counting was stopped at 100 colonies. Anything greater was considered >100 colonies. The counts were recorded, and multiplied by a factor of 5 because of the dilution factor between the 0.5 ml of TSB containing the disk and the 100 μl that was plated onto the TSAII blood agar plates.

[3] = tested on: C. parapsilosis; assay: Modified Robbins device (MRD) in vitro colonization model, Candida parapsilosis in biofilm on silicone catheter segments; format: cell-based; settings: for 24 h Growth after 15 Minutes in Drug Mean CFU C. Parapsilosis / suppression / eradication / regrowth of C. parapsilosis embedded in biofilm, in words: 15 min exposure; for 24 h Growth after 15 Minutes in Drug Mean CFU C. Parapsilosis: then re-incubation in broth for 24 h; for suppression / eradication / regrowth of C. parapsilosis embedded in biofilm, in words: with or without 24 h re-incubation in broth; for 15 Minutes in Drug Mean CFU C. Parapsilosis: cultured immediately after 15 min exposure at 37° C.
Description: as §1, §2

[4] = tested on: Candida parapsilosis; assay: Silicone disk bioprosthetic colonization Candida parapsilosis model; format: cell-based; settings: for suppression / eradication of Candida parapsilosis growth on silicone disks, in words / 1 hour in Drug Mean CFU C. Parapsilosis: 1 hour exposure; for 1 hour in Drug Mean CFU C. Parapsilosis / 24 h Growth after 1 hour in Drug Mean CFU C. Parapsilosis: silicone disks; for 24 h Growth after 1 hour in Drug Mean CFU C. Parapsilosis: exposure then 24 h reincubation in TSB
Protocol: as §3, §4, §5, §6, §7, §8

[5] = tested on: organisms that colonize the lumen of the catheter; settings: dwell time of 4-24 hours; cited from earlier work

| Compound | 24 h growth after 15 min in drug mean CFU MRSA [1] [CFU] | suppression / eradication / regrowth of MRSA embedded in biofilm, in words [1] | 15 minutes in Drug mean CFU MRSA [1] [CFU] | suppression / eradication / regrowth of bioprosthetic MRSA colonization of silicone disks, in words [2] | 1 hour in Drug Mean CFU ± std. error [2] [CFU] | 24 h Growth after 1 hour in Drug Mean CFU ± std. error [2] [CFU] | 24 h Growth after 15 Minutes in Drug Mean CFU C. Parapsilosis [3] [CFU] | suppression / eradication / regrowth of C. parapsilosis embedded in biofilm, in words [3] | 15 Minutes in Drug Mean CFU C. Parapsilosis [3] [CFU] | suppression / eradication of Candida parapsilosis growth on silicone disks, in words [4] | 1 hour in Drug Mean CFU C. Parapsilosis [4] [CFU] | 24 h Growth after 1 hour in Drug Mean CFU C. Parapsilosis [4] [CFU] | 24 h growth after 15 min in drug mean CFU MRSA ([1]; listed as 25% ethanol solution) [CFU] | 15 minutes in Drug mean CFU MRSA ([1]; listed as 25% ethanol solution) [CFU] | eradication of microbial organisms embedded in biofilm from catheter surfaces, in words [5] |
| --- | --- | --- | --- | --- | --- | --- | --- | --- | --- | --- | --- | --- | --- | --- | --- |
| CN(C)c1ccc(O)c2c1C[C@H]1C[C@H]3[C@H](N(C)C)C(O)=C(C(N)=O)C(=O)[C@@]3(O)C(O)=C1C2=O [3 mg/ml minocycline, minocycline] | 308.3 ± 151.1 | some decrease in colonization | 323.7 ± 199.0 | failed to suppress | 5000.0 ± 0.0 | 5000.0 ± 0.0 | 500.0 ± 0.0 | failed to eradicate | 138.3 ± 111.8 | failed to suppress or eradicate | 5000.0 ± 0.0 | 5000.0 ± 0.0 |  |  |  |
| CCO [25% EtOH in MHB, ethanol] | 500.0 ± 0.0 |  | 138.0 ± 193.8 | failed to suppress | 2900.0 ± 722.8 | 5000.0 ± 0.0 | 142.9 ± 225.9 | regrowth was noted | 0 | failed to completely suppress | 1933 ± 601.6 | 3875.0 ± 618.3 | 500 | 138 |  |
| O=C(O)CN(CCN(CC(=O)O)CC(=O)O)CC(=O)O [30 mg/ml EDTA, ethylenediamine-N,N,N′,N′,-tetraacetic acid] | 500.0 ± 0.0 | failed to eradicate | 479.6 ± 44.9 | failed to suppress | 5000.0 ± 0.0 | 5000.0 ± 0.0 | 500.0 ± 0.0 | failed to eradicate | 160 ± 78.8 | failed to suppress or eradicate | 5000.0 ± 0.0 | 5000.0 ± 0.0 |  |  |  |
| CN[C@H](CC(C)C)C(=O)N[C@H]1C(=O)N[C@@H](CC(N)=O)C(=O)N[C@H]2C(=O)N[C@H]3C(=O)N[C@H](C(=O)N[C@H](C(=O)O)c4cc(O)cc(O)c4-c4cc3ccc4O)[C@H](O)c3ccc(c(Cl)c3)Oc3cc2cc(c3O[C@@H]2O[C@H](CO)[C@@H](O)[C@H](O)[C@H]2O[C@H]2C[C@](C)(N)[C@H](O)[C@H](C)O2)Oc2ccc(cc2Cl)[C@H]1O [vancomycin alone, vancomycin] |  |  |  |  |  |  |  |  |  |  |  |  |  |  | failed to eradicate |
